Test [1] relates to growth cones of DRG neurons. The test is described as follows: Immunolabeling of growth cone cytoskeleton (Ac-α-tubulin, tyrosinated α-tubulin, F-actin). The class given is cell-based, rat. As for the experimental part:
We tested for this specificity in the adult DRG neurons from above by immunoblotting. […] (A) Number of mitochondria in growth cones after exposing DRG cultures to 10 μM TubA versus vehicle (control) for 1 h is shown as average fold-change in number of mitochondria per growth cone±SEM (n=13 axons across three culture preparations; *, P≤0.05 by one-way ANOVA with Bonferroni post hoc analysis). (B) Representative EMs of Remak bundles (arrowheads) in naive Sciatic nerve and nerves after 2 h vehicle (DMSO) or TubA injection are shown. Arrows indicate mitochondria in the unmyelinated axons. Note that a Schwann cell nucleus (asterisk) is seen in the Remak bundle for DMSO image but not the other two micrographs (scale bar=3 μm). (C) Quantification of number of mitochondria per unmyelinated axon from EM images as in B is shown as average±SEM (n≥5; *****, P≤0.0001 by one-way ANOVA with Bonferroni post hoc analysis). (D-F) Quantification for indicated parameters for mitochondrial transport in sciatic nerve in vivo using tetramethylrhodamine, ethyl ester, perchlorate to visualize mitochondria is shown.
We used a sequential immunostaining approach for simultaneous detection of tyrosinated α-tubulin (by indirect immunofluorescence), Ac-α-tubulin, and β-tubulin (by direct immunofluorescence). Phalloidin staining was also used to detect F-actin. Monoclonal mouse anti-Ac-α-tubulin IgG (6-11-B1; Sigma-Aldrich; T6793) was conjugated to Alexa Fluor 405 using the Zenon Labeling Kit per the manufacturer's instructions (Life Technologies; Z-25013). After fixation and permeabilization, coverslips were incubated with anti-Tyr-α-tubulin IgG (1:100; Sigma-Aldrich; T9028) in 1% blocking buffer overnight at 4° C. in a humidified chamber. […] Coverslips were washed twice with PBS then stained with Actin-Red 555 Ready Probe for 30 min (1:25 dilution of 200 /Uml stock; Thermo Fisher Scientific; R37112). […] Epifluorescence and confocal imaging was used for imaging of fixed samples to obtain protein localization and quantitation data. […]

Test [2] deals with Miro1. As to the kind of experiment: Anti-Ac-Lys immunoprecipitation of Miro1 from DRG lysates. In kind it is cell-based, rat. As for the experimental part:
Protein acetylome profiles from nonneuronal cells have reported acetylation of Miro1/2 and Milton 1/2 but not of Syntaphilin (Choudhary et al., 2009; Lundby et al., 2012; Wagner et al., 2012).
DRG neurons were lysed in 100 mM KCl, 5 mM MgCl2, 10 mM Hepes, pH 7.4, 1 mM DTT, and 0.5% NP-40 supplemented with lx protease inhibitor cocktail (Roche). The lysates were passed through a 25-gauge needle five times and cleared by centrifugation at 12,000 g for […]. Equal amounts of the supernatants were then incubated with primary antibodies overnight, and immunocomplexes were precipitated with Protein G-Dynabeads (Invitrogen) for an additional 2 h at 4° C. with rotation. A cocktail of rabbit and mouse anti-Ac-Lys antibodies (5 μg each; Cell Signaling; 9441 and 9681) was used directly for analyses of Myc-Miro1 transfected cultures by immunoprecipitation. For analysis of endogenous Miro1 acetylation, the anti-Lys antibody cocktail (5 μg of each) was directly cross-linked to 5 mg of M-270 epoxy beads (Dynabeads) using the Dynabeads antibody coupling kit according to the manufacturer's instructions (Life Technologies; 14311D). […]
For immunoblotting, protein lysates or immunoprecipitates were denatured by boiling in Laemmli sample buffer, fractionated by SDS-PAGE, and transferred to nitrocellulose membranes. […] Signals were detected using ECL Prime (GE Healthcare) after extensive washing.

In the case of `CN1CCc2c(c3ccccc3n2Cc2ccc(C(=O)NO)cc2)C1` [TubA, tubastatin], in test [1] (10 μM vs control cultures), the “anti-Ac-α-tubulin immunoreactivity in growth cones” value is recorded as “significant increase in anti-Ac-α-tubulin immunoreactivity in growth cones” and the “tyrosinated α-tubulin in growth cones” value is on record as “no change in tyrosinated α-tubulin”. Besides, the “growth cone signals for F-actin” value in test [1] (TubA-treated cultures) is “consistently decreased”. Besides, the “pull-down efficiency of Miro1 with anti-Ac-Lys antibody cocktail” value in test [2] (10 μM TubA for 4 h, n=4) came to 14.1±2.2%. For the same molecule, the “anti-Ac-Lys immunoprecipitated Miro1 band” value in test [2] (treatment with TubA) is recorded as “modestly increasing”.

These data come from patent publication US20210330756A1, “Acetylation of Miro1” (University of South Carolina, priority 2020, published 2021).
